Columns and labels:
[1] = Solubility in water; format: physicochemical
[2] = system: mutated and amplified genes (ctDNA) in blood; test: Molecular response by repeated Guardant 360 tests (ctDNA in blood); format: in vivo, human; settings: individual patients; genes named in the cited cell or block
Procedure: Molecular response was determined by repeated Guardant 360 tests. […] Herein, blood samples were collected from patients and provided to Guardant for panel testing wherein a “panel” was defined as five or more ctDNA genes or gene mutation variants tested on the same day on the same member by the same rendering provider (i.e., Guardant).

[3] = system: Uncommon Cancers (Neoplastic Disorders); test: Patients with uncommon cancers treated with AS2-1 in combination with other drugs: response and survival; format: in vivo, human; settings: GIST patient, before the combination of AS and sunitinib
Procedure: Patients diagnosed with 34 types of terminal cancer were treated with Antineoplaston AS2-1 (AS) therapy to reduce and/or abolish tumors and other signs of cancer and reduce and/or abolish expression of cancer-causing genes. In brief, patients admitted for treatment herein were diagnosed with terminal, Stage IV, cancers of varying types with multiple metastases and had failed standard-of-care regimens, except for a small number of patients who were treatment naive, but were not candidates for standard treatment because of very advanced disease and less than 6 months life expectancy. The estimated survival for these patients was from less than one to less than 6 months. The patients had radiological evidence of advanced metastatic cancer performed within 4 weeks from treatment start and genomic analysis, usually ordered at admission, including Guardant 360 blood test and/or Foundation One and/or Tempus blood or tissue test and/or SEMA4 tissue test. […]
At baseline, history taking, physical examination, necessary laboratory, genomic and radiological evaluations were performed. Two largest perpendicular diameters of the radiologically significant lesions were measured including MRI contrast-enhanced lesions in the brain and spinal cord. […] Mixed response was determined when there was a CR or PR of some lesions and PD of the other lesions. […]

SMILES	Genes affected by AS / molecular response: status of mutated or amplified genes in follow-up blood genomic analysis [2]	also measured
NC(=O)C(CCC(=O)[O-])NC(=O)Cc1ccccc1.[Na+] (stereo not shown) [Iso-PG, phenylacetylisoglutaminate sodium]		solubility in water [1]: soluble in water
CCc1cc2c(cc1N1CCC(N3CCOCC3)CC1)C(C)(C)c1[nH]c3cc(C#N)ccc3c1C2=O [alectinib]	Elimination of the ALK fusion	
Cc1ccc(NC(=O)c2ccc(CN3CCN(C)CC3)cc2)cc1Nc1nccc(-c2cccnc2)n1 [imatinib]		response to prior targeted therapy [3]: failed to respond
C=CC(=O)Nc1cc(Nc2nccc(-c3cn(C)c4ccccc34)n2)c(OC)cc1N(C)CCN(C)C [osimertinib]	elimination of the two EGFR mutations	

From patent US20230190694A1, “COMPOSITIONS FOR AND METHODS OF PRECISION CANCER TREATMENT” (priority 2021, published 2023)
